The data set has as its target Albumin (Homo sapiens, UniProt P02768). In words: In vitro Ka value against human serum albumin; N=1.

Chain of Albumin (P02768 whole entry): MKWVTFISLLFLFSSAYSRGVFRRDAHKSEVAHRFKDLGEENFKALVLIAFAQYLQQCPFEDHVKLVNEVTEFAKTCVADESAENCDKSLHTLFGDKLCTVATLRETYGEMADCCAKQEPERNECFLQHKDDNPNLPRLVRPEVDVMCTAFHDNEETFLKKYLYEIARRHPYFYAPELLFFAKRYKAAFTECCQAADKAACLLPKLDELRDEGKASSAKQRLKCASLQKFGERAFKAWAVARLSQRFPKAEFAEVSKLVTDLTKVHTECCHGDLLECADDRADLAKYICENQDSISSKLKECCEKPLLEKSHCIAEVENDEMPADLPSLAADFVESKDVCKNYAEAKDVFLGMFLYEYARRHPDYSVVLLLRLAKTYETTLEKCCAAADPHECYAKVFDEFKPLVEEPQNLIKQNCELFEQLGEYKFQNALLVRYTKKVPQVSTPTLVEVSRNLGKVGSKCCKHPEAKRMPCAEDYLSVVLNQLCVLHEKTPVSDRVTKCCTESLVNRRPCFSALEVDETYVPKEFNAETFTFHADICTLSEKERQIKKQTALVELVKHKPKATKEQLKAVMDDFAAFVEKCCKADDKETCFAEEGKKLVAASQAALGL

In the case of `CCCCC/C=C\C[C@@H](O)/C=C/C=C/C=C\[C@@H](O)CCCC(=O)O` [LEUKOTRIENE_B4], the Ka was 67000 M⁻¹.

The values above are taken from ChEMBL document CHEMBL1142776, “In vitro binding of leukotriene B4 (LTB4) to human serum albumin: evidence from spectroscopic, molecular modeling, and competitive displacement studies” (Bioorg Med Chem Lett, 2005).
